Assay results taken from patent US20080221134A1, “8-ALKYNYLXANTHINES AND DERIVATIVES” (priority 2006, published 2008).

Key:
Adenosine A2B = molecular target: T1, Adenosine A2B (Homo sapiens, UniProt P29275); assay: Radioligand binding assay 2, Adenosine A2B; conditions: at 1 μmol/l; human recombinant HEK-293 cells, [3H]MRS 1754; read-out: A2B AR % inhibition of agonist binding
T1 construct: expressed in transfected cells; host or cells: HEK-293 cells
T1 sequence (P29275 1-332): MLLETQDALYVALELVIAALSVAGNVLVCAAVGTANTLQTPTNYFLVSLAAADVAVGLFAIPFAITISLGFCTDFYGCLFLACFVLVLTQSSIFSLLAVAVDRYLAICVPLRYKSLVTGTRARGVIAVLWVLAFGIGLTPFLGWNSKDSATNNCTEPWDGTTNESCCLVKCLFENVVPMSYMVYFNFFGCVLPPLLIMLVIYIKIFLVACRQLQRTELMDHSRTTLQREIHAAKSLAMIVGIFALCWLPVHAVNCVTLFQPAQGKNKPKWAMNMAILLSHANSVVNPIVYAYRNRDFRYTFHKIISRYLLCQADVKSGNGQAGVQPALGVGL
Experimental: (§1) The assays were performed under the conditions described below. The literature references are also provided for each assay:
The adenosine A2B radioligand binding assay used is further described in Stehle J. H. et al., Mol. Endocrinol., 1992, 6, 384 and is incorporated herein by reference.
(§2) The specific ligand binding to the receptors is defined as the difference between the total binding and the non-specific binding determined in the presence of an excess of unlabelled ligand. The results are expressed as a percent of control specific binding and as percent inhibition of control specific binding obtained in the presence of the test compounds.

Adenosine A3 = molecular target: T2, Adenosine A3 (Homo sapiens, UniProt P0DMS8); assay: Radioligand binding assay 2, Adenosine A3; conditions: at 1 μmol/l; human recombinant HEK-293 cells, [125I]AB-MECA; read-out: A3 AR % inhibition of agonist binding
T2 construct: expressed in transfected cells; host or cells: HEK-293 cells
T2 sequence (P0DMS8 1-318): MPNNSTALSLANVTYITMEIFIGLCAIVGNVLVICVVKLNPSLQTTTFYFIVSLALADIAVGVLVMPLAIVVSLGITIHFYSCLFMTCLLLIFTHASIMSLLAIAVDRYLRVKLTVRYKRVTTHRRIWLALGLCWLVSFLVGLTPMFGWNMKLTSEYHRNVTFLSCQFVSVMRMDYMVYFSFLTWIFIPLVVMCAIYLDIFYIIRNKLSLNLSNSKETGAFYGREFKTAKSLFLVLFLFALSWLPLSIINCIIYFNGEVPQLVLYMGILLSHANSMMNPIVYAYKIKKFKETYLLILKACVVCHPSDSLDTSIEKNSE
Experimental: as §1
The adenosine A3 radioligand binding assay used is further described in Salvatore C. A. et al., Proc. Natl. Acad. Sci. USA, 1993, 90, 10365 and is incorporated herein by reference.
as §2

Adenosine A1 = molecular target: T3, Adenosine A1 (Homo sapiens, UniProt P30542); assay: Radioligand binding assay 2, Adenosine A1; set-up: expressed in transfected cells; host or cells: CHO cells; conditions: at 1 μmol/l; human recombinant CHO cells, [3H]CCPA; read-out: A1 AR % inhibition of agonist binding
T3 sequence (P30542 1-326): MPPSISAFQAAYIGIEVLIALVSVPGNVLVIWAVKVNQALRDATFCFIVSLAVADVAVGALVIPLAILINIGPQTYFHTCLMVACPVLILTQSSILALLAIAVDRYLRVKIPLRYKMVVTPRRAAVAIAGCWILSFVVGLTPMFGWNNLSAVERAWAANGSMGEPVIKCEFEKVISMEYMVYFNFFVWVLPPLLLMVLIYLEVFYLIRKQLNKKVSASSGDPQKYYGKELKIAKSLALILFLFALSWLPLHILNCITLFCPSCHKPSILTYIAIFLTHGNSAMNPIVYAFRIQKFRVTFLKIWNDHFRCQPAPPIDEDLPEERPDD
Experimental: as §1
The adenosine A1 radioligand binding assay used is further described in Rivkees S. A. et al., J. Biol. Chem., 1995, 270, 20485 and is incorporated herein by reference.
as §2

Adenosine A2A = Adenosine A2A (Homo sapiens, UniProt P29274); assay: Radioligand binding assay 2, Adenosine A2A; set-up: expressed in transfected cells; host or cells: HEK-293 cells; conditions: at 1 μmol/l; human recombinant HEK-293 cells, [3H]CGS 21680; read-out: A2A AR % inhibition of agonist binding
Experimental: as §1
The adenosine A2A radioligand binding assay used is further described in Luthin D. R. et al., Mol. Pharmacol., 1995, 47 and is incorporated herein by reference.
as §2

MAO-B = molecular target: T4, MAO-B (Homo sapiens, UniProt P27338); assay: MAO-B inhibition; type: biochemical
T4 sequence (P27338 1-520): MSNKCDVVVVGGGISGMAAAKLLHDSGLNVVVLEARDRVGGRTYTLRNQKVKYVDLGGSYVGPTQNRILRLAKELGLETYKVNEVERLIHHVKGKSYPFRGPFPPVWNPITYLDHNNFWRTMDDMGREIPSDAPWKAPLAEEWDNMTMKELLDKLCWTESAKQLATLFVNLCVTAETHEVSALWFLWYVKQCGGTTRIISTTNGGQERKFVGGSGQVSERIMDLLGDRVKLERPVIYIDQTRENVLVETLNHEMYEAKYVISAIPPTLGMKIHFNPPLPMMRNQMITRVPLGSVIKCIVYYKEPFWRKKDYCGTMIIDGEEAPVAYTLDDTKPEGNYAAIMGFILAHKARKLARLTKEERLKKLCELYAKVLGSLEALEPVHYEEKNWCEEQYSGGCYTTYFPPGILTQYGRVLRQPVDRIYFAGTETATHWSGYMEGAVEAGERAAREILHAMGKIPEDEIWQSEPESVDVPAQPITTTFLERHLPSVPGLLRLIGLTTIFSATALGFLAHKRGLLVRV

Adenosine A2A, sequence (P29274 whole entry): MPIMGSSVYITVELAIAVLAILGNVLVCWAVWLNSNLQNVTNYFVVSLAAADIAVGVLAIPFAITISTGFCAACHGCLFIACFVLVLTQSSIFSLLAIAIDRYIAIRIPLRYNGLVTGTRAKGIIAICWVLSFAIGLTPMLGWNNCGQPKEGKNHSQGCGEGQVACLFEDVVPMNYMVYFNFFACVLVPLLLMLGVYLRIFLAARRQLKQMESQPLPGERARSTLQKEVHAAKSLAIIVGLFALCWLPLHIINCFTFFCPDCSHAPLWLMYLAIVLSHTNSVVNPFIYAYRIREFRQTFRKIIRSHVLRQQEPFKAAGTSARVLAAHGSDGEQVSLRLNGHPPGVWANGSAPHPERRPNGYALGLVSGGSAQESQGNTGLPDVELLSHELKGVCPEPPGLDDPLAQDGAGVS

SMILES | inhibition at 1 µM (Adenosine A2B) [%] | inhibition at 1 µM (Adenosine A3) [%] | inhibition at 1 µM (Adenosine A1) [%] | inhibition at 1 µM (Adenosine A2A) [%] | Mao-B-inhibition values (MAO-B) | melting point [°C]
C#CCn1c(=O)c2c(nc(C#Cc3cccc(Br)c3)n2C)n(C)c1=O [8-(3-bromophenylethynyl)-3,7-dimethyl-1-prop-2-ynyl-3,7-dihydropurine-2,6-dione] |  |  |  |  | submikromolar range | 
C#CCn1c(=O)c2c(nc(C#Cc3cccc(OC)c3)n2CC#C)n(C)c1=O [drawing 610] | 22 | 37 | 24 | 86 |  | 
C#CCn1c(=O)c2c(nc(C#Cc3cccc(Cl)c3)n2C)n(C)c1=O [8-(3-chlorophenylethynyl)-3,7-dimethyl-1-prop-2-ynyl-3,7-dihydropurine-2,6-dione] |  |  |  |  | submikromolar range | 
C#CCn1c(=O)c2c(nc(C#Cc3cccc(O)c3)n2C)n(C)c1=O [8-(3-Hydroxyphenylethynyl)-3,7-dimethyl-1-prop-2-ynyl-3,7-dihydropurine-2,6-dione] |  |  |  |  |  | 271
C#CCn1c(=O)c2c(nc(C#Cc3cccc(OC(C)=O)c3)n2C)n(C)c1=O [8-(3-Acetoxyphenylethynyl)-3,7-dimethyl-1-prop-2-ynyl-3,7-dihydropurine-2,6-dione] |  |  |  |  |  | 238

Continued, in another order:

inhibition at 1 µM (Adenosine A2B) [%] | inhibition at 1 µM (Adenosine A3) [%] | inhibition at 1 µM (Adenosine A1) [%] | inhibition at 1 µM (Adenosine A2A) [%] | Mao-B-inhibition values (MAO-B) | SMILES | melting point [°C]
17 | 54 | 43 | 92 |  | C#CCn1c(=O)c2c(nc(C#Cc3cccc(C)c3)n2C)n(CCCO)c1=O [drawing 613] | 
14 | 38 | 4 | 95 |  | C#CCn1c(=O)c2c(nc(C#Cc3ccc(OC)c(OC)c3)n2C)n(CC)c1=O [drawing 608] | 
14 | 36 | 34 | 97 |  | C#CCn1c(=O)c2c(nc(C#Cc3ccc(OC)c(OC)c3)n2C)n(CCCO)c1=O [drawing 612] | 
19 | 24 | 5 | 81 |  | C#CCn1c(=O)c2c(nc(C#Cc3cccc(OC)c3)n2C)n(C)c1=O [drawing 607] | 
6 | 37 | 41 | 93 |  | C#CCn1c(=O)c2c(nc(C#Cc3cccc(OC)c3)n2C)n(CCCO)c1=O [drawing 611] | 
19 | 16 | 10 | 85 |  | C#CCn1c(=O)c2c(nc(C#Cc3ccc(OC)c(OC)c3)n2C)n(C)c1=O [drawing 609] | 
